Patent US20190307893A1, “NANOVESICLES WITH PORPHYRIN-LIPID CONJUGATE CORE” (UNIVERSITY HEALTH NETWORK, priority 2016, published 2019)
“Also recorded” adds a separate entry of the source.

Legend:
Type in all cases: physicochemical
[1] = Dynamic light scattering size measurement of chlorin derivatives embedded in liposomes; conditions: 20% chlorin derivatives embedded within liposomes
Method: Lipid film was prepared in the 12 mm×35 mm clear glass threaded vials (Fisher Scientific) by combining 20% of chlorin derivatives (either Zn-MeO-chlorin acid 7, Zn-vinyl-chlorin lipid, MeO-chlorin lipid, or Zn-MeO-chlorin lipid) with 75% DPPC and 5% DPPE-mPEG2000 dissolved in MeOH or chloroform. The lipid solutions were dried under a stream of nitrogen gas for 30 min and further dried under vacuum desiccation for at least 3 h before hydration. One milliliter phosphate buffered saline (PBS) was added to the lipid films and 10 freeze and thaw cycles was performed by sequentially freezing the sample in liquid nitrogen, followed by rapid thawing in a 70° C. water bath. Dispersed particles were then subjected to extrusion by passing samples 10 times through a high pressure extruder loaded with 100 nm polycarbonate filter membranes at 70° C.
(§1) Z-average size and polydispersity of the samples in PBS were measured using a Malvern ZS90 (Instruments, UK). Absorption spectra of each sample was determined by UV spectroscopy (CARY 50 UV/Vis S3 Spectrophotometer, Varian Inc.). Absorption spectra of intact samples was measured in PBS, and that of detergent disrupted samples was measured after adding Triton-X100 so that the final detergent concentration was 0.1% v/v.

[2] = Fluorescence properties and quenching of chlorin derivatives in lipid nanovesicles; conditions: embedded within lipid nanovesicles; for Full width at half max: fluorescence
Method: Fluorescence measurements were carried out Fluoromax ut on a Fluoromax-4 spectrofluorometer (Horiba Jobin Yvon, NJ) Fluorescence spectra of intact and detergent disrupted state was measured by exciting samples at 556 nm with a 5 nm slit width and collecting fluorescence from 600 nm to 800 with a 5 nm slit width. Quenching efficiency was calculated by the following equation: […]
(§2) Where F0 and Fdetergent are the integration of fluorescence intensity from 600 nm to 800 nm for intact and detergent-disrupted sample respectively. Circular dichroism spectra was measured in PBS and 0.1% Triton-X100 using a J-815 Circular Dichroism Spectrometer (JASCO Inc.).

[3] = UV/visible absorption and circular dichroism of chlorin-loaded lipid nanovesicles
Method: as §1, §2

[4] = Storage stability of nanoparticles at room temperature after freeze-thaw; conditions: 10 days, PBS, after freeze-thaw rehydration
Method: The color of Zn-MeO-chlorin acid (7) and Zn-MeO-chlorinchlorin lipid (11) nanoparticles was monitored after 10 freeze and thaw cycles. Concentration of chlorin dyes in each sample was adjusted to 60 μM. Samples were stored in the dark at room temperature for 10 days.

[5] = UV/visible absorption of chlorin oleylamine loaded lipoprotein nanoparticles; conditions: for Qy-band wavelength shift: intact lipoprotein nanoparticle in PBS vs monomeric form in methanol, 10:1 DMPC:dye
Method: Lipid film was prepared in 12 mm×75 mm clear glass threaded vials (Fisher Scientific) by combining 0.1 μmol (4, 10, 10, 13 or 17) and 1.0 μmol DMPC in chloroform. The lipid solutions were dried under a slow stream of nitrogen gas for 30 min and further dried under a higher stream for at least 1 h before hydration. One mL of phosphate buffered saline (PBS) was added to the dried lipid films and sonicated in a 47° C. water bath for 10 minutes immediately followed by Bioruptor at low frequency (30 kHz) for 30 cycles (30 s on/30 s off) at 40° C. R4F peptide (0.1 μmol; 1 mg/mL in PBS) was added into the rehydrated solution and the mixture was mixed gently at 4° C. overnight. The solution was centrifuged at 13 500 rpm for 20 min subsequently and filtered with a 0.1 μm membrane. Unbound peptide was removed and nanoparticle sample was concentrated using a 10 kDa membrane centrifugal filter (EMD Millipore) by two rounds of centrifugation at 4000 g for 7 min at 4° C.
The UV-Vis absorption spectra of lipoprotein nanoparticles with Zn-containing oleylamine compounds 4, 10 and 17 are shown in FIG. 14. The intact structures are labeled in green (solid line) and methanol-disrupted structures are labeled in black (dashed line).

[6] = 20% loading, intact nanovesicles

Row | Molecule | Z-average [1] [nm·days] | FL λmax [2] [nm] | Stokes Shift [2] | Full width at half max [2] [nm] | ordered aggregation in the lipid bilayer ([3]; nanovesicles) | PDI (polydispersity index) [1] | stability on storage (visible dispersion) [4] | Qy-band wavelength shift [5] [nm] | other results
1 | CCCCCCCCCCCCCCCC(=O)OCC(COP(=O)([O-])OCC[N+](C)(C)C)OC(=O)CC[C@@H]1c2nc(cc3[nH]c(cc4nc(cc5[nH]c6c2CC(=O)c6c5C)C(CC)=C4C)c(COC)c3C)[C@H]1C (some centres unmarked) [MeO-chlorin lipid, 3-Devinyl-3′-methoxymethyl-13^2-demethoxycarbonylpheophorbide-a lipid] | 105 ± 1.6 | 676 | 10 nm | 40 | did not | – | – | – | –
2 | CCC1=C(C)C2=NC1=Cc1c(C)c3c4[n]1[Zn][n]1c(c(C)c(COC)c1=C2)=CC1=NC(=C4CC3=O)[C@@H](CCC(=O)O)[C@@H]1C [Zn-MeO-chlorin acid, Zinc 3-devinyl-3′-methoxymethy-13^2-demethoxycarbonylpheophorbide-a] | 113.9 ± 9.6 | 664 | 1 nm | 24 | – | > 0.3 | flocculated after 10 days; also recorded: Precipitate was observed | – | PDI (polydispersity index) ([1]; listed as Zu—MeO-chlorin acid): 0.3 ± 0.2; shift in optical absorption / CD ([3]; nanovesicles, 1% loading for Zn-MeO-chlorin acid, 20% for chlorin lipids): did not demonstrate appreciable shift in optical absorption nor CD
3 | C=Cc1c(C)c2[n]3c1=CC1=NC(=Cc4c(C)c5c([n]4[Zn]3)C(=C3N=C(C=2)[C@@H](C)[C@@H]3CCC(=O)NCCCCCCCC/C=C\CCCCCCCC)CC5=O)C(CC)=C1C [Zn-vinyl-chlorin oleylamine, Zinc 13^2-demethoxycarbonylpheophorbide-a oleylamine] | – | – | – | – | – | – | – | 8 | –
4 | CCCCCCCC/C=C\CCCCCCCCNC(=O)CC[C@@H]1C2=C3CC(=O)c4c(C)c5[n](c43)[Zn][n]3c(c(C)c(CO)c3=CC3=NC(=C5)C(CC)=C3C)=CC(=N2)[C@H]1C [Zn—OH-chlorin oleylamine, Zinc 3-Devinyl-3^1-hydroxyl-13^2-demethoxycarbonylpheophorbide-a oleylamine] | – | – | – | – | – | – | – | 61 | absorption when nanostructures disrupted ([5]; lipoprotein nanoparticles, disrupted): 654 nm; absorption of loaded (intact) nanoparticles ([5]; lipoprotein nanoparticles, intact): 715 nm
5 | Zinc 3-Devinyl-3′-methoxymethyl-13^2-demethoxycarbonylpheophorbide-a lipid [Zn-MeO-chlorin lipid] | 96.0 ± 3.9 | 725 | no appreciable Stokes' shift | 15 | showed ordered aggregation | 0.10 ± 0.04 | remained visibly dispersed | – | Stokes Shift ([2]; listed as Zn—MeO-chlorin lipid): 0 nm; CD spectra [3, 6]: bisignate spectra around the Qy band region; far red-shifted absorption peak [3, 6]: 725 nm; secondary peak red-shift from the monomer absorption [3, 6]: 3 nm; bathochromic shift in the lowest energy absorption band (Qy) ([3]; lipid nanovesicles vs monomeric state in methanol or 0.1% Triton X-100): 72 nm; effect of dye loading beyond 20% on spectra ([3]; loading titrated 1-30 mol % of total lipid): neither UV/Vis spectra nor CD spectra significantly changed
6 | Zinc 13^2-demethoxycarbonylpheophorbide-a lipid [Zn-vinyl-chlorin lipid] | 101 ± 2.3 | 682 | 9 nm | 21 | did not | – | – | – | –
